Measured values published in publication PMC9143221 (Pharmaceuticals, 2022).
Values after ≈ are worked out from the molar mass of the structure shown. Read-outs that look alike come from different tables or passages of the source. Bridge positions count the residues as written; N and C are the ends. Square brackets hold non-standard residues; d marks the D form. Ends that are not written are not given here. Peptide text beside a SMILES is read from it.

How the values were obtained:
[1] = tested on: all the tested antibiotic-resistant pathogens (e.g., MRSA, Escherichia coli, Pseudomonas aeruginosa, and Klebsiella pneumoniae)
pseudo-EBOV (VSV-eGP) [2] = type: cell-based, Ebola virus
[3] = tested on: Klebsiella pneumoniae E406-17
[4] = tested on: Acinetobacter baumannii B28-16
pseudo-EBOV (VSV-eGP) [5] = tested on: pseudo-EBOV (VSV-eGP)
[6] = tested on: Pseudomonas aeruginosa #2
SARS-CoV-2 WI = details: 2 h
[7] = tested on: Staphylococcus epidermidis 1457
[8] = tested on: Vero cells (ATCC, CCL-81)
[9] = tested on: Calu-3 (ATCC, HTB-55) cells; details: 48 h
human red blood cells = details: red cells of human
[10] = tested on: BALB/c mouse red blood cells
[11] = tested on: HaCaT cells (human keratinocytes)

Compound | inhibition of VSV-eGP, treated immediately after infection (pseudo-EBOV (VSV-eGP) [2]) | Minimum inhibitory concentration, Klebsiella pneumoniae E406-17 [3] | Minimum inhibitory concentration, Acinetobacter baumannii B28-16 [4] | Minimum inhibitory concentration, Pseudomonas aeruginosa #2 [6] | inhibition of SARS-CoV-2 (SARS-CoV-2 WI; 5 µM) | inhibition of SARS-CoV-2 (SARS-CoV-2 WI; 10 µM) | Minimum inhibitory concentration, Staphylococcus epidermidis 1457 [7] | Minimum inhibitory concentration, S. aureus USA300 (S. aureus USA300) | Minimum inhibitory concentration, Escherichia coli E416-7 (Escherichia coli E416-7) | hRBC HC50 (50% hemolytic concentration) (human red blood cells) | also measured
CC(C)C[C@@H](NC(=O)CN)C(=O)N[C@H](CCCNC(=N)N)C(=O)N[C@@H]1CSSC[C@H](C(=O)N[C@H](CC(C)C)C(=O)N[C@H](CC(C)C)C(=O)N[C@H](CCCNC(=N)N)C(=O)O)NC(=O)[C@@H](CCCNC(=N)N)NC(=O)CNC(=O)[C@@H](CC(C)C)NC(=O)[C@@H](CCCNC(=N)N)NC(=O)[C@@H](CCCNC(=N)N)NC(=O)[C@@H](CC(C)C)NC(=O)[C@@H](CC(C)C)NC(=O)[C@@H](CCCNC(=N)N)NC(=O)CNC(=O)[C@@H](CC(C)C)NC(=O)[C@@H](CCCNC(=N)N)NC1=O [DDIP1] (H-G[dL][dR][dC][dR][dL]G[dR][dL][dL][dR][dR][dL]G[dR][dC][dL][dL][dR]-OH; disulfide 4-16; N-terminus assumed) | ~ 15% | 4 µM (≈ 9.12 µg/mL) | 2 to 4 µM | 4 µM (≈ 9.12 µg/mL) | 42% | ~ 55% | 4 to 8 µM | 4 µM (≈ 9.12 µg/mL) | 2 µM (≈ 4.56 µg/mL) |  | MIC values against all the tested antibiotic-resistant pathogens [1]: 2 to 8 µM; inhibition against the virus (VSV-eGP) (pseudo-EBOV (VSV-eGP) [5]; 2 h, 2.5 µM): 7%; inhibition against the virus (VSV-eGP) (pseudo-EBOV (VSV-eGP) [5]; 2 h, 5 µM): 14%; Vero Cell TC50 [8]: 13.0 µM
CC[C@H](C)[C@H](NC(=O)[C@H](CCCCN)NC(=O)[C@H](CCC(=O)O)NC(=O)[C@H](CCCCN)NC(=O)[C@H](CO)NC(=O)[C@H](CCCCN)NC(=O)[C@H](CCCNC(=N)N)NC(=O)[C@H](Cc1ccccc1)NC(=O)[C@H](Cc1ccccc1)NC(=O)[C@H](CC(=O)O)NC(=O)CNC(=O)[C@H](CC(C)C)NC(=O)[C@@H](N)CC(C)C)C(=O)NCC(=O)N[C@@H](CCCCN)C(=O)N[C@@H](CCC(=O)O)C(=O)N[C@@H](Cc1ccccc1)C(=O)N[C@@H](CCCCN)C(=O)N[C@@H](CCCNC(=N)N)C(=O)N[C@H](C(=O)N[C@H](C(=O)N[C@@H](CCC(N)=O)C(=O)N[C@@H](CCCNC(=N)N)C(=O)N[C@H](C(=O)N[C@@H](CCCCN)C(=O)N[C@@H](CC(=O)O)C(=O)N[C@@H](Cc1ccccc1)C(=O)N[C@@H](CC(C)C)C(=O)N[C@@H](CCCNC(=N)N)C(=O)N[C@@H](CC(N)=O)C(=O)N[C@@H](CC(C)C)C(=O)N[C@H](C(=O)N1CCC[C@H]1C(=O)N[C@@H](CCCNC(=N)N)C(=O)N[C@H](C(=O)N[C@@H](CCC(=O)O)C(=O)N[C@@H](CO)C(=O)O)[C@@H](C)O)C(C)C)[C@@H](C)CC)C(C)C)[C@@H](C)CC [LL-37, reference compound] | 9% |  |  |  | 18% | ~ 27% |  |  |  |  | Calu3 Cell TC50 [9]: 19.1 µM; inhibition of VSV-eGP (in words) (pseudo-EBOV (VSV-eGP) [5]): higher viral inhibition than DDIP1
RWLRGLLSGLLR-NH2 [DFTavP3] |  | 8 µM | 4 µM | 4 to 8 µM |  |  | 8 µM | 4 µM | 2 to 4 µM | 50 µM | 
RWLRGLLSGLLRRLLS-NH2 [DFTavP2] |  | 4 µM | 2 µM | 8 µM |  |  | 2 µM | 4 µM | 4 µM | below 12.5 µM | decrease in the viral inhibition compared to DFTavP1 (pseudo-EBOV (VSV-eGP) [5]; 2 h, 5 µM): 33%
RWLRGLLSGLLRRLLSGLLL-NH2 [DFTavP1] |  | 16 to 32 µM | 8 µM | 32 µM |  |  | 8 to 16 µM | 8 to 16 µM | 16 µM |  | hemolysis of murine red blood cells (in words) [10]: highly hemolytic; mRBC HC50 ([10]; red cells of mouse): <10 µM; higher inhibition than LL-37 (pseudo-EBOV (VSV-eGP) [5]; 2 h, 2.5 µM): 18%; HaCaT TC50 (peptide concentration that killed 50% of human keratinocytes) [11]: 25 µM
RWVRGVVSGVVRRVVS-NH2 [DFTavP4] |  |  |  |  |  |  |  | >64 µM | 16 µM |  | 
